Calls of active or inactive are those of the source.
Tests used:
[1] = test system: Streptococcus; experiment: GAS UMAA2166 growth inhibition – luminescence, BacTiterGlo, counter-screen for streptokinase expression inhibitor project, dose response (AID 1915); assay type: functional, organism-based;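 further: potency for reduction of bacterial viability or growth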
[2] = biological target: T1, Short transient receptor potential channel 4 (Mus musculus, UniProt Q9QUQ5); experiment: block of DAMGO-driven TRPC4 calcium entry – cell-based, HEK293 TRPC4/mu-opioid, Fluo-4 calcium, dose response (AID 434942); assay type: functional;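 further: potency of inhibitors blocking the TRPC4 calcium response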
T1 sequence (Q9QUQ5 whole entry): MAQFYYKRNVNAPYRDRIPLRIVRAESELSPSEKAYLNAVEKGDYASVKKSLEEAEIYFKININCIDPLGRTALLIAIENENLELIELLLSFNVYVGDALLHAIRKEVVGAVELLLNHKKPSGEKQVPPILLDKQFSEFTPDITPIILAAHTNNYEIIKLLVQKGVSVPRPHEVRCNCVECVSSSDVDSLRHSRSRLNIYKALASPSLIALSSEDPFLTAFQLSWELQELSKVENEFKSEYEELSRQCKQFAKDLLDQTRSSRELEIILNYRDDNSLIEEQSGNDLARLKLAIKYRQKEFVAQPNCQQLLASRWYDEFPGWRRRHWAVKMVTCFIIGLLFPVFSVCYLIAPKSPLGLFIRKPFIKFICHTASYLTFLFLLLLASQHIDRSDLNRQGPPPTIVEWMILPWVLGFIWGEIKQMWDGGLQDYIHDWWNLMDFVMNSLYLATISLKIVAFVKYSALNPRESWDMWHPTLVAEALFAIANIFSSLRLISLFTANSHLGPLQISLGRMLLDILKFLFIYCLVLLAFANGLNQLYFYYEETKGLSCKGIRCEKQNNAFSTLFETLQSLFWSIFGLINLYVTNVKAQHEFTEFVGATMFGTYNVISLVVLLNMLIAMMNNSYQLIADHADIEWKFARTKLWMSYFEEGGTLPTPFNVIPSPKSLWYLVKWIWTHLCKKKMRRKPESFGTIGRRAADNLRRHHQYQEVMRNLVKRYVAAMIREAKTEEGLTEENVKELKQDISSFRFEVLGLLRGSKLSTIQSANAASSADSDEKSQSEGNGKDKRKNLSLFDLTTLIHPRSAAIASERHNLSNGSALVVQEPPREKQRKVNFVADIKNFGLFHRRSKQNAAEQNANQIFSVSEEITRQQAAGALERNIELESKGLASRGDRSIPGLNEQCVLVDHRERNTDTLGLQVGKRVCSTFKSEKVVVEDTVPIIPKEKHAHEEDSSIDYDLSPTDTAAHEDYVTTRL

[3] = test system: Streptococcus sp. 'group A'; experiment: Streptococcus pyogenes SK(-)GAS viability under kanamycin – luminescence, BacTiterGlo, confirmation, counter-screen for streptokinase expression inhibitor project, dose response (AID 1900); assay type: functional, organism-based
[4] = biological target: T2, Streptokinase A (Streptococcus pyogenes serotype M1, UniProt P10520); experiment: viability-normalized secreted streptokinase activity reduction – plasminogen activation absorbance, OD405, dose response (AID 1914); assay type: functional, Streptococcus pyogenes M1 GAS;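 further: secreted streptokinase activity via plasminogen activation per viability signal from cell pellet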
T2 sequence (P10520 whole entry): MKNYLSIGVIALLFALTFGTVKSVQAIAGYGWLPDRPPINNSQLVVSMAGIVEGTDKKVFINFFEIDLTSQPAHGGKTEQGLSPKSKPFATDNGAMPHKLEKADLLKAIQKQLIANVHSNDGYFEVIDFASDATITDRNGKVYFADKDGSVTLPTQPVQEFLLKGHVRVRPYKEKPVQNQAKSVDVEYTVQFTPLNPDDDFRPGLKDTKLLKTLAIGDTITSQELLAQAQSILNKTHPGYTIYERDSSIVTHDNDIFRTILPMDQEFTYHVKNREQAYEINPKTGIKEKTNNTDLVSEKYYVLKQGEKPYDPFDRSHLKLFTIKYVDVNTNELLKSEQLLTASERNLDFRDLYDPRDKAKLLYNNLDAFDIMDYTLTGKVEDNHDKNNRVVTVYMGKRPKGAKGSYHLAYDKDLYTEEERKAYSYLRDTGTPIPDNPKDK

[5] = cells; assay type: functional
[6] = Vero E6 cell cytotoxicity, dose response, cytotoxicity control for non-replicating M. tuberculosis project, secondary assay (AID 492998); assay type: functional, VeroE6; conditions: Vero C1008
[7] = biological target: T3, Histone-lysine N-methyltransferase NSD2 (Homo sapiens, UniProt O96028); assay type: biochemical
T3 sequence (O96028 whole entry): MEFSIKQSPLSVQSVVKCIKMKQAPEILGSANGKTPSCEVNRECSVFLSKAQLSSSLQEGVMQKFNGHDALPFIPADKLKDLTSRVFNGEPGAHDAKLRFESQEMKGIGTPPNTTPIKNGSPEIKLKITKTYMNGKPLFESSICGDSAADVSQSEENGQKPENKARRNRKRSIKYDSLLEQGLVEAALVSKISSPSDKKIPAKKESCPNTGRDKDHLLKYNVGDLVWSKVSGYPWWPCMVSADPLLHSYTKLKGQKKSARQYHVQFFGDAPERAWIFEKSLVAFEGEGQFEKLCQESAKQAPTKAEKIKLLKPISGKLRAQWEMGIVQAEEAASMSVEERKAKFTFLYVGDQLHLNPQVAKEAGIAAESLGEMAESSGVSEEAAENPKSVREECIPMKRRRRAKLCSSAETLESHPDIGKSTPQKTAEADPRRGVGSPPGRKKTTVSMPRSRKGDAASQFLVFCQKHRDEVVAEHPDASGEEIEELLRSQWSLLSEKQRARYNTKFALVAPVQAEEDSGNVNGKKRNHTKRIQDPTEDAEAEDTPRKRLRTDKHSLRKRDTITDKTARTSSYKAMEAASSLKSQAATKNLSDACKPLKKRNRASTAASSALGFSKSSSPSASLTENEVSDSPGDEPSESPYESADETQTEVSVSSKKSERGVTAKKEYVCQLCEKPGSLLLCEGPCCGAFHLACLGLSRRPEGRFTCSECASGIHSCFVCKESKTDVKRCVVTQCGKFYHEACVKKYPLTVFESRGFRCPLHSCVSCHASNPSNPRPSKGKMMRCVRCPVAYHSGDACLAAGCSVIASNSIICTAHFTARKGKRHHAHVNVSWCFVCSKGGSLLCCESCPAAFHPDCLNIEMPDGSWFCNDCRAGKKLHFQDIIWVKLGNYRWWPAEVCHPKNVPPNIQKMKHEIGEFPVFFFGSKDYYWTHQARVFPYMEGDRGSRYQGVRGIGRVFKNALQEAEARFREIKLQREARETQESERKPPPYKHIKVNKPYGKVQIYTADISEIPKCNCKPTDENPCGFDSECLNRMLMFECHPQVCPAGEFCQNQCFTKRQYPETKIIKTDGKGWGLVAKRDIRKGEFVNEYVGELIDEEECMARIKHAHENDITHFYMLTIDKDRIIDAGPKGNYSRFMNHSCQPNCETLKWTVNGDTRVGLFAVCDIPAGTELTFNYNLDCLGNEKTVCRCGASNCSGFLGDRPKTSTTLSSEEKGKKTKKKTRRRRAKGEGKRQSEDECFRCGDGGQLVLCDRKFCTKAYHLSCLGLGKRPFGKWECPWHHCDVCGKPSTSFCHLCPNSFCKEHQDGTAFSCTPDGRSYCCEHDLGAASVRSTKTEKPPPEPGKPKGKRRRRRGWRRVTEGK

[8] = OVCAR-3 cell viability loss – plate reader, dry powder samples, PAX8 inhibitor project, dose response (AID 743044); assay type: functional, cell-based
[9] = biological target: Paired box protein Pax-8 (Homo sapiens, UniProt Q06710); experiment: PAX8 transcriptional activity inhibition in RMG-I – RMG-I cells, luciferase, cherry-pick, dose response (AID 687027); assay type: functional, cell-based;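 further: luciferase reporter driven by Pax8 target thyroperoxidase promoter measured by SteadyGlo luminescence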
Chain of Paired box protein Pax-8 (Q06710 whole entry): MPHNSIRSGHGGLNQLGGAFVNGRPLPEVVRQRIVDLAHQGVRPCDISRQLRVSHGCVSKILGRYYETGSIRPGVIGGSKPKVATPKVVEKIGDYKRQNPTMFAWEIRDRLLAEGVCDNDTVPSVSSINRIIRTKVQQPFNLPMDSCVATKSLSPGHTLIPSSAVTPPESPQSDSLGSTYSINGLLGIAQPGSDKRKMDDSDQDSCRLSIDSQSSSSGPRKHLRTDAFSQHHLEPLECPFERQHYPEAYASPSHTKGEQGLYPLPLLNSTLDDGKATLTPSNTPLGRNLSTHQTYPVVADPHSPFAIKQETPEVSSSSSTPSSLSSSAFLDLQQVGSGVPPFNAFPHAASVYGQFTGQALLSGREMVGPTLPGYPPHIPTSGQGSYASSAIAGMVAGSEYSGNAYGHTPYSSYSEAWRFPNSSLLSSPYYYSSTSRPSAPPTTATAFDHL

[10] = OVCAR8 cell viability loss – plate reader, dry powder samples, PAX8 project, dose response (AID 743197); assay type: functional, cell-based; conditions: OVCAR-8
[11] = IGROV1 cell killing – plate reader, dry powder samples, PAX8 inhibitor project, dose response (AID 743043); assay type: functional, cell-based; conditions: IGROV-1
[12] = biological target: T4, Replicative DNA helicase DnaB (Mycobacterium tuberculosis, UniProt P9WMR3); experiment: DnaB intein splicing inhibitors, dose response, biochemical, cell-free fluorescence (AID 449749); assay type: functional
T4 sequence (P9WMR3 whole entry): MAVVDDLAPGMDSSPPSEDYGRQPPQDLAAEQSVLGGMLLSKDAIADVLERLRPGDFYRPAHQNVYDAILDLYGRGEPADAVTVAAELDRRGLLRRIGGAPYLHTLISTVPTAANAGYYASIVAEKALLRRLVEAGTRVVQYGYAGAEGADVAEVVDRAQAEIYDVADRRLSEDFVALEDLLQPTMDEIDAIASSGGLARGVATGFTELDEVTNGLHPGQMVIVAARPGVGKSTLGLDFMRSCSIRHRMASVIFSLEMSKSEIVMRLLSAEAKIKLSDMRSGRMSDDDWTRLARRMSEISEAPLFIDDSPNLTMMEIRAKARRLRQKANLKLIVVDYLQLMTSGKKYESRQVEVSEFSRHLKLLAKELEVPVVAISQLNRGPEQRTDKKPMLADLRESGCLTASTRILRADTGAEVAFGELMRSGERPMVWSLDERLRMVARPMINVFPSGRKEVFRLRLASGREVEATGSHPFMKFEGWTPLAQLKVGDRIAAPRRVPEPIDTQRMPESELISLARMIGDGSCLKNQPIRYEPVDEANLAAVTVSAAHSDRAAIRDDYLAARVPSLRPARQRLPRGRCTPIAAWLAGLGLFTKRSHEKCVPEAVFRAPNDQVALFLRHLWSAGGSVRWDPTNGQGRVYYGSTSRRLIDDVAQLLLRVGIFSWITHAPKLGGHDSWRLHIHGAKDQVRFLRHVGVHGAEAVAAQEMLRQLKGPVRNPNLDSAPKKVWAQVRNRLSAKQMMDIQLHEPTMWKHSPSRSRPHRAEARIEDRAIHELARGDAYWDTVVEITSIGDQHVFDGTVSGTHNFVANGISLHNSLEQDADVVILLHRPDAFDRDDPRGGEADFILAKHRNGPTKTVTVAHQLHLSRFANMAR

[13] = biological target: T5, Protein RecA (Mycobacterium tuberculosis, UniProt P9WHJ3); experiment: Fluorescence Cell-Free Homogeneous Dose Retest to Identify Inhibitors of RecA-Intein Splicing Activity. [Related pubchem assays (depositor defined):AID2097, AID2223, AID489010, AID492950]; assay type: functional
T5 sequence (P9WHJ3 whole entry): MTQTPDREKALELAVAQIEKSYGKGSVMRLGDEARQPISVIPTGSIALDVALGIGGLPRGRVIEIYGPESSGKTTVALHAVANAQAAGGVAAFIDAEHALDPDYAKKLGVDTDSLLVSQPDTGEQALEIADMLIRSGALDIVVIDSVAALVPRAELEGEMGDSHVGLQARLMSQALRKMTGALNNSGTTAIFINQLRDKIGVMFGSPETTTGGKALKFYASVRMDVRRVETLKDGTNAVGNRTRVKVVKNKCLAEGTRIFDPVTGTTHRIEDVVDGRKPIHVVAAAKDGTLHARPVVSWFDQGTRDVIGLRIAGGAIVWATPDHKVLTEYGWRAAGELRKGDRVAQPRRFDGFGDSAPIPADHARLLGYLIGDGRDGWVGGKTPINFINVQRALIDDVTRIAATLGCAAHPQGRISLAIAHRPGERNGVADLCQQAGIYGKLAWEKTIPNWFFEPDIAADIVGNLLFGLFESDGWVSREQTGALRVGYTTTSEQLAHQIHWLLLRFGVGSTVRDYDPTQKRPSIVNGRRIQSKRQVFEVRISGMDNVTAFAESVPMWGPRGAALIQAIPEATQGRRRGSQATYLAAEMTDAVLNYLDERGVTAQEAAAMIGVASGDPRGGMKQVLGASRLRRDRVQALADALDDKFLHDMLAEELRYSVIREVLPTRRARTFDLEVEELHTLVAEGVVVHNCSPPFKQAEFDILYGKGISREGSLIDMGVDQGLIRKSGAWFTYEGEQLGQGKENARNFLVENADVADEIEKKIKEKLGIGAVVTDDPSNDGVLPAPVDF

[14] = biological target: Nonstructural protein 1 (Influenza A virus, UniProt Q194T2); assay type: functional, Influenza A virus (A/California/07/2009(H1N1))
Chain of Nonstructural protein 1 (Q194T2 whole entry): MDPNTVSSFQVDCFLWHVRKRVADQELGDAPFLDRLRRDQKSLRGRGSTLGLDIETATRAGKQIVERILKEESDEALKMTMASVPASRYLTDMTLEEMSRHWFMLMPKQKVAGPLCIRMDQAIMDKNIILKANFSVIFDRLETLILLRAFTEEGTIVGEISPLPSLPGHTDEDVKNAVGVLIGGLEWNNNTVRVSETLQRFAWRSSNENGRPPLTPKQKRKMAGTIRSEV

[15] = THP-1 cell cytotoxicity, dose response, cytotoxicity control for non-replicating M. tuberculosis project (AID 489025); assay type: functional

Cc1ccc(Cn2c(Cc3ccccc3)nc3ccccc32)cc1
EC50 [1]: 61.3 µM (active) | EC50 [2]: 0.668 µM (active) | EC50 [3]: 12.5 µM (active) | EC50 [4]: > 150 µM (not active)

O=C(c1ccccc1)c1nc[nH]c1C(=O)Nc1ccccc1
IC50 [5]: 12.5 µM (active) | CC50 [6]: > 20 µM (active)

O=C(/C=C/c1ccco1)Nc1ccccc1C(=O)O
AC50 [7]: > 20 µM (inactive)

C=C(C)c1cccc(C(C)(C)NC(=O)NC2CN3CCC2CC3)c1 (configuration not stated)
AC50 [7]: 15.6 µM (active)

CC(=O)Oc1ccc(/C=C(\NC(=O)c2ccco2)C(=O)NCc2ccccc2)cc1
EC50 [2]: 1.68 µM (active)

COc1cc2c(cc1OC)C(C)N(CCc1ccc(Cl)cc1)CC2 (configuration not stated)
EC50 [2]: 0.105 µM (active)

C[C@@H]1CN([C@@H](C)CO)C(=O)c2cc(NC(=O)c3ccccc3)ccc2O[C@@H](C)CCCCO[C@@H]1CN(C)Cc1ccc(C(F)(F)F)cc1
AC50 [8]: 30.4 µM (active) | AC50 [9]: 9.74 µM (active) | AC50 [10]: > 70 µM (inactive)

C[C@@H]1CCCCO[C@@H](CN(C)C(=O)Nc2cccc3ccccc23)[C@H](C)CN([C@H](C)CO)C(=O)c2cc(NS(=O)(=O)c3ccc(F)cc3)ccc2O1
AC50 [9]: 5.4 µM (active) | AC50 [11]: 45.5 µM (active) | AC50 [10]: > 70 µM (inactive)

C[C@H](CO)N1C[C@H](C)[C@H](CN(C)Cc2ccc(Cl)c(Cl)c2)OCCCC[C@H](C)Oc2ccc(NC(=O)Nc3ccc(C(F)(F)F)cc3)cc2C1=O
AC50 [9]: 5.3 µM (active) | AC50 [11]: 43.1 µM (active) | AC50 [10]: 63 µM (active)

Cc1cccc(S(=O)(=O)N2CC[C@@H]3[C@H](CO)N(C)c4ccc(C#Cc5ccc(F)cc5)cc4[C@@H]32)c1
AC50 [9]: 8.27 µM (active) | AC50 [11]: 41.8 µM (active) | AC50 [10]: > 60 µM (inactive)

Cc1[nH]n(-c2ccccc2)c(=O)c1C(C[N+](=O)[O-])c1ccc(Cl)cc1 (configuration not stated)
AC50 [12]: 5.32 µM (active) | AC50 [7]: 9.52 µM (active) | EC50 [13]: 3.22 µM (active)

O=C(N/N=C/c1ccccc1O)c1cc[n+]([O-])cc1
IC50 [14]: 4.49 µM (active)

Cc1nn(C)cc1/C=N/NC(=O)c1sc2ccccc2c1Cl
CC50 [15]: > 40 µM (active)

From ChEMBL document CHEMBL1201862, “PubChem BioAssay data set” (2004)
